Data reported in publication PMC10140581, “Development and evaluation of novel artemisinin-isatin hybrids with potential anti-leukemic cytotoxicity” (Frontiers in Oncology, 2023).

Assays:
[1] = MTT cytotoxicity assay, normal PBMCs; format: cell-based, human; conditions: normal peripheral blood mononuclear cells (PBMCs); MTT assay, normal human PBMCs
Procedure: (§1) The antiproliferative activity and cytotoxicity of ester tethered ART-isatin hybrids 7a-u against human myeloid leukemia cell lines (K562 CM-0130 purchased from Procell and K562/ADR AW-CELLS-H0187 purchased from AnWei-sci), human acute lymphoblastic leukemia cell line (CCRF-CEM CL-0058 purchased from Procell) as well as cytotoxicity towards normal human peripheral blood mononuclear cells (PBMCs 230470, purchased from Mingzhoubio) were assessed by 3-(4,5-dimethylthiazol-2-yl)-2,5-diphenyltetrazolium bromide (MTT) assay.

[2] = test system: normal human peripheral blood mononuclear cells (PBMCs); assay: MTT cytotoxicity assay, normal PBMCs; format: cell-based; conditions: PBMCs vs CCRF-CEM
Procedure: as §1

[3] = test system: K562 human myeloid leukemia cell line; assay: MTT antiproliferative assay, K562; format: cell-based
Procedure: as §1
(§2) Medium in wells was replaced after 24 h with fresh medium containing the tested compounds in DMSO (1% v/v) and incubated for 72 h. […] 3-(4,5-dimethyl-2-thiazolyl)-2,5-diphenyltetrazolium bromide (MTT) solution (10 µL) was added to each well, and the cultures were incubated for an additional 4 h at 37°C. A further 100 µL of […] was added and incubation continued overnight at 37°C. The absorbance at 540 nm was determined in each well with a 96-well plate reader. The growth of the treated cells was compared with that of untreated cells. Half maximum inhibitory concentration (IC50) is a measurement of the efficacy of a substance in inhibiting a specific biological or biochemical process. […] In this experiment, the dose-response curve constructed by Spss22.0 software was used to calculate the inhibitory effect of the hybrid (0 μM-100 μM) on the activity of leukemia cell lines. Each experiment was performed independently in triplicate with three tests in each, and results were reported as mean inhibitory concentration IC50.

[4] = test system: CCRF-CEM human acute lymphoblastic leukemia cell line; assay: MTT antiproliferative assay, CCRF-CEM; format: cell-based
Procedure: as §1, §2

[5] = test system: K562/ADR human myeloid leukemia cell line; assay: MTT antiproliferative assay, K562/ADR; format: cell-based
Procedure: as §1, with “assay. The antiproliferative activity was expressed by half maximal inhibitory concentration (IC50) values, which were presented in Table 2 .” for “assay.”
as §2

IC50 [3] [µM] | IC50 [4] [µM] | IC50 [5] [µM] | SMILES | IC50 [1] [µM] | SI, Selectivity index, IC50(PBMCs)/IC50(CCRF-CEM) [2]
16 | 12.7 | > 100 | CCON=C1C(=O)N(CCCC(=O)OC2O[C@@H]3O[C@@]4(C)CC[C@H]5[C@H](C)CC[C@@H]([C@H]2C)[C@@]35OO4)c2ccc(F)cc21 (stereo partly drawn) [hybrid 7q, (3R,5aS,6R,8aS,9R,12R,12aR)-3,6,9-trimethyldecahydro-12H-3,12-epoxy[1,2]dioxepino[4,3-i]isochromen-10-yl 4-(3-(ethoxyimino)-5-fluoro-2-oxoindolin-1-yl)butanoate] | > 100 | >7.85
6.32 | 9.21 | > 100 | C[C@@H]1CC[C@H]2[C@@H](C)C(OC(=O)CCCN3C(=O)C(=NOCc4ccccc4)c4cc(F)ccc43)O[C@@H]3O[C@@]4(C)CC[C@@H]1[C@]32OO4 (stereo partly drawn) [hybrid 7r, (3R,5aS,6R,8aS,9R,12R,12aR)-3,6,9-trimethyldecahydro-12H-3,12-epoxy[1,2]dioxepino[4,3-i]isochromen-10-yl 4-(3-[(benzyloxy)imino)-5-fluoro-2-oxoindolin-1-yl]butanoate] | > 100 | >10.85
> 100 | 3.82 | > 100 | CON=C1C(=O)N(CCCC(=O)OC2O[C@@H]3O[C@@]4(C)CC[C@H]5[C@H](C)CC[C@@H]([C@H]2C)[C@@]35OO4)c2ccc(OC)cc21 (stereo partly drawn) [hybrid 7s, (3R,5aS,6R,8aS,9R,12R,12aR)-3,6,9-trimethyldecahydro-12H-3,12-epoxy[1,2]dioxepino[4,3-i]isochromen-10-yl 4-(5-methoxy-3-(methoxyimino)-2-oxoindolin-1-yl)butanoate] | > 100 | >26.17
> 100 | 1.9 | > 100 | CCON=C1C(=O)N(CCCC(=O)OC2O[C@@H]3O[C@@]4(C)CC[C@H]5[C@H](C)CC[C@@H]([C@H]2C)[C@@]35OO4)c2ccc(OC)cc21 (stereo partly drawn) [hybrid 7t, (3R,5aS,6R,8aS,9R,12R,12aR)-3,6,9-trimethyldecahydro-12H-3,12-epoxy[1,2]dioxepino[4,3-i]isochromen-10-yl 4-(3-(ethoxyimino)-5-methoxy-2-oxoindolin-1-yl)butanoate] | > 100 | >52.63
> 100 | 2.45 | > 100 | COc1ccc2c(c1)C(=NOCc1ccccc1)C(=O)N2CCCC(=O)OC1O[C@@H]2O[C@@]3(C)CC[C@H]4[C@H](C)CC[C@@H]([C@H]1C)[C@@]24OO3 (stereo partly drawn) [hybrid 7u, (3R,5aS,6R,8aS,9R,12R,12aR)-3,6,9-trimethyldecahydro-12H-3,12-epoxy[1,2]dioxepino[4,3-i]isochromen-10-yl 4-(3-[(benzyloxy)imino)-5-methoxy-2-oxoindolin-1-yl]butanoate] | > 100 | >40.81
